How the values were obtained:
[1] = target: T1, Hepatocyte nuclear factor 4-alpha (Homo sapiens, UniProt P41235); assay: Displacement of [3H]methyl4-[5,6,7,8-tetrahydro-5,5,8,8-tetramethyl-3-ethyloxy-2-naphthalenyl]benzoyl benzoate from HNF4alpha (unknown origin) by radioligand binding assay
T1 sequence (P41235 whole entry): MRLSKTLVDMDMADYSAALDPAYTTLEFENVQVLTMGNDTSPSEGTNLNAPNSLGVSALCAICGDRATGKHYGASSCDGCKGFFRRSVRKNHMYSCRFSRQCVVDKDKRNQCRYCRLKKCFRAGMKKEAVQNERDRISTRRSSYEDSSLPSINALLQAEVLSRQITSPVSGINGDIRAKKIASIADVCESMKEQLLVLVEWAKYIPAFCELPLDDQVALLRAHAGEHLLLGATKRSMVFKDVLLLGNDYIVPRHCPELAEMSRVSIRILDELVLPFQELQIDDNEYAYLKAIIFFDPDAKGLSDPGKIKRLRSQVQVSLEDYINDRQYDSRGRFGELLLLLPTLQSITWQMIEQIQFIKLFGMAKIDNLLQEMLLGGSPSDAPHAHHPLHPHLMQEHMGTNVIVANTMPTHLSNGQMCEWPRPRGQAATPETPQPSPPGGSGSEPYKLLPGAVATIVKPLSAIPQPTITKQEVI

[2] = target: T2, Retinoic acid receptor RXR-alpha (Homo sapiens, UniProt P19793); assay: Displacement of [3H]9-cis-retinoic acid from RXRalpha (unknown origin) by radioligand binding assay
T2 sequence (P19793 whole entry): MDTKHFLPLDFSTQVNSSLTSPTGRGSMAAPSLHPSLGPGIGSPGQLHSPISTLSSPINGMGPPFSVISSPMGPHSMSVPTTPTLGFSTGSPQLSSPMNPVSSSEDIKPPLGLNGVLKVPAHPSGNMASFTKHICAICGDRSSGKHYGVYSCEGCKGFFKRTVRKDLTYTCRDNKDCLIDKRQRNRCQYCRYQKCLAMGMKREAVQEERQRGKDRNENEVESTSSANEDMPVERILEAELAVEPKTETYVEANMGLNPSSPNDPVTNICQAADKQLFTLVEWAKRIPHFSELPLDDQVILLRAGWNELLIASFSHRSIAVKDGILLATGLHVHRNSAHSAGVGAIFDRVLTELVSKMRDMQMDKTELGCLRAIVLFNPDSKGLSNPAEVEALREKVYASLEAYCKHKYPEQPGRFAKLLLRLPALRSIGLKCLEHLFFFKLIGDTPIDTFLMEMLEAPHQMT

[3] = target: T3, Hepatocyte nuclear factor 4-alpha (Rattus norvegicus) (UniProt P22449); assay: Antagonist activity against rat HNF4alpha1 expressed in African green monkey CV1 cells assessed as reduction in endogenous agoinst-induced luciferase expression incubated for 24 hrs by firefly luciferase reporter gene assay relative to control; type: functional, cell-based; conditions: CV-1
T3 sequence (whole entry): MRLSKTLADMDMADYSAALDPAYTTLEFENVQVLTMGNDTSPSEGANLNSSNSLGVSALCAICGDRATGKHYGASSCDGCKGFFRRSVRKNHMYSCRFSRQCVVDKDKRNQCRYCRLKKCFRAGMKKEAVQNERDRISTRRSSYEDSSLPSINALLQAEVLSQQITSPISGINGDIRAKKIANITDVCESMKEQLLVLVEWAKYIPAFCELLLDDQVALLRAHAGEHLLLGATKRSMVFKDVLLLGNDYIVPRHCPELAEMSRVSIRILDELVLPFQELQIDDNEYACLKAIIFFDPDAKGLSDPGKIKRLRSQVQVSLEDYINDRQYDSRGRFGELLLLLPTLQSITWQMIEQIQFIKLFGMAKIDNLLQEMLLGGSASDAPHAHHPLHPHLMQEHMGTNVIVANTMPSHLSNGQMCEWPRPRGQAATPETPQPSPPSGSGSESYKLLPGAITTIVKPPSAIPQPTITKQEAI

[4] = target: T4, Hepatocyte nuclear factor 4-alpha (Rattus norvegicus, UniProt P22449); assay: Antagonist activity against rat HNF4alpha1 expressed in African green monkey CV1 cells assessed as reduction in endogenous agoinst-induced luciferase expression incubated for 24 hrs by firefly luciferase reporter gene assay; type: functional, cell-based, CV-1
T4 sequence (P22449 whole entry): T3 sequence (whole entry)

[5] = target: T3, Hepatocyte nuclear factor 4-alpha (Rattus norvegicus); assay: Agonist activity at rat HNF4alpha1 expressed in African green monkey CV1 cells incubated for 24 hrs by firefly luciferase reporter gene assay relative to LG0100695; type: functional, cell-based; conditions: CV-1
[6] = target: T4, Hepatocyte nuclear factor 4-alpha; assay: Agonist activity at rat HNF4alpha1 expressed in African green monkey CV1 cells incubated for 24 hrs by firefly luciferase reporter gene assay; type: functional, cell-based, CV-1

| Structure (SMILES) | Ki [1] [nM] | Ki [2] [nM] | Efficacy [3] [%] | IC50 [4] [nM] | Efficacy [5] [%] | EC50 [6] [nM] |
| --- | --- | --- | --- | --- | --- | --- |
| Cc1cc2c(cc1C(OCc1ccccc1F)c1ccc(C(=O)O)cc1)C(C)(C)CCC2(C)C (stereo unspecified) | 580 | 5200 | 106 | 4 |  |  |
| Cc1cc2c(cc1C(OCc1ccc(SC(F)(F)F)cc1)c1ccc(C(=O)O)cc1)C(C)(C)CCC2(C)C (stereo unspecified) | 1190 | 3000 |  |  |  |  |
| CCOc1cc2c(cc1C(=O)c1ccc(C(=O)C(=O)O)cc1)C(C)(C)CCC2(C)C | 364 | > 10000 |  |  | 95 | 1140 |
| CCOc1cc2c(cc1/C(=N/Nc1cc(F)ccc1F)c1ccc(C(=O)O)cc1)C(C)(C)CCC2(C)C | 215 | 3000 | 110 | 1 |  |  |
| CCCCCCO/N=C(\c1ccc(C(=O)O)cc1)c1cc2c(cc1OCC)C(C)(C)CCC2(C)C | 322 | 1900 | 120 | 1 |  |  |
| Cc1c(C(=O)c2ccc(C(=O)O)cc2)cc2c(c1[N+](=O)[O-])C(C)(C)CCC2(C)C | 165 | > 5000 |  |  | 43 | 2230 |
| CC1(C)CCC(C)(C)c2c1cc(C(=O)c1ccc(C(=O)O)cc1)c(OCC(F)F)c2[N+](=O)[O-] | 163 | > 10000 |  |  | 57 | 594 |
| CC1(C)CCC(C)(C)c2cc(/C(=N\Nc3ccccc3)c3ccc(C(=O)O)cc3)ccc21 | 514 | > 10000 | 100 | 103 |  |  |
| CCOc1cc2c(cc1/C(=N/OCCC(C)C)c1ccc(C(=O)O)cc1)C(C)(C)CCC2(C)C | 244 | 4600 | 119 | 3 |  |  |
| CCOc1cc2c(cc1C(=O)c1ccc(C(=O)O)cc1)C(C)(C)CCO2 | 721 | 3000 |  |  | 68 | 2240 |
| Cc1c(C(=O)c2ccc(C(=O)O)cc2)cc2c(c1[N+](=O)[O-])OCCC2(C)C | 2200 | > 30000 |  |  | 88 | 2950 |
| Cc1cc2c(c(O)c1C(=O)c1ccc(C(=O)O)cc1)C(C)(C)CCC2(C)C | 710 | > 30000 |  |  | 103 | 2640 |
| CCOc1cc2c(cc1C(=O)c1ccc(C(=O)O)cc1)C(C)(C)CCC2(C)C | 110 | 824 |  |  | 100 | 263 |
| CCCCOC(c1ccc(C(=O)O)cc1)c1cc2c(cc1OCC)C(C)(C)CCC2(C)C (stereo unspecified) | 339 | 2700 | 108 | 4 |  |  |
| CC1(C)CCC(C)(C)c2cc(C(=O)c3ccc(C(=O)O)cc3)c(OCC(F)(F)F)cc21 | 96 | 1500 |  |  | 33 | 2190 |
| CCOc1cc2c(cc1/C(=N/OCc1cccc(F)c1F)c1ccc(C(=O)O)cc1)C(C)(C)CCC2(C)C | 966 | > 30000 | 118 | 35 |  |  |
| Cc1ccc(C)c(N/N=C(\c2ccc(C(=O)O)cc2)c2cc3c(cc2C)C(C)(C)CCC3(C)C)c1 | 1010 | > 30000 | 103 | 19 |  |  |
| Cc1cc2c(cc1C(NCc1cccc(F)c1)c1ccc(C(=O)O)cc1)C(C)(C)CCC2(C)C (stereo unspecified) | 1400 | 6500 |  |  |  |  |
| Cc1ccc(S(=O)(=O)Nc2c(C)c(Cc3ccc(C(=O)O)cc3)cc3c2C(C)(C)CCC3(C)C)cc1 | 5210 | > 30000 | 121 | 22 |  |  |
| COc1c(C(=O)c2ccc(C(=O)O)cc2)cc2c(c1C)N(C)CCC2(C)C | 4600 | > 30000 |  |  | 42 | 2850 |
